Laboratory results as given in patent publication US20040009904A1, “APL immunoreactive peptides, conjugates thereof and methods of treatment for aPL antibody-mediated pathologies” (priority 1995, published 2004).
Bridge positions count the residues as written; N and C are the ends. Square brackets hold non-standard residues; d marks the D form. Peptide text beside a SMILES is read from it. NMeL = CN[C@@H](CC(C)C)C(=O)O; Phg = N[C@H](C(=O)O)c1ccccc1; Orn = NCCC[C@H](N)C(=O)O; Aib = CC(C)(N)C(=O)O

These compounds were tested against ACA-6501 (assay: Competitive binding peptide ACA ELISA, cardiolipin/β2-GPI-coated plates). Conditions: Optimization of Peptide 3G3; inf = no 50% inhibition.
Set-up: species or system human
Description: A variation of this assay uses microtitration plates coated with human β2-glycoprotein I/cardiolipin (β2-GPI/CL) instead of tetravalent peptide and tests the ability of monomeric peptides to block the binding of aPL antibody to the epitope(s) on β2-GPI/CL. In this assay, IgG-depleted human serum at an optimized concentration is used as a source of β2-GPI. The monomeric peptides at several concentrations are incubated with an optimized concentration of aPL antibody in a manner analogous to the assay which employs tetravalent peptide as a plate substrate. Following the incubation of aPL/peptide in (β2-GPI/CL) plates, antibody binding and the peptide concentration required for 50% inhibition is determined at half-maximal absorbance as in the tetravalent assay.
Peptide sequences for all five peptides immediately follow the table. All were tested using the competitive binding peptide ACA ELISA using CL/β2-GPI plates as described herein.
(B) Immulon I® 96-well, flat-bottom, polystyrene microtitration plates (Dynatech Laboratories, Inc., Chantilly, Va.) were coated with 30 μL/well of cardiolipin (CL, 50 μg; Sigma Chemical Co., St. Louis, Mo.) in ethanol. Two control wells received 30 μL ethanol only. After overnight evaporation at 4° C., each well was blocked with 200 μL of 5% (w/v) fish gelatin in PBS for 2 hours at RT.
During this incubation, variable amounts of each of six peptides were mixed with 22 μL ACA-6501 serum diluted with 3% fish gelatin in 1:1 TBS/PBS (final dilution of 1:400) in a final volume of 220 μL using Eppendorf microcentrifuge tubes. Specifically, in tube #1 were mixed 181.3 μL of 3% fish gelatin in TBS-PBS, 16.7 μL of peptide stock solution plus 22 μL of ACA-6501 serum diluted 40 times in 3% fish gelatin/TBS-PBS. Stock solutions ranged from 450-800 μg/mL for peptides #951 (diserine non-cyclized negative control), #952 (a lot of LJP 690), and thioethers CCTE-3G3, CHTE-3G3, HCTE-3G3 and HHTE-3G3. To tube #2 the following were added: 148 μL fish gelatin/TBS-PBS, […] of peptide stock solution, plus 22 μL of 40 times diluted ACA-6501 serum. Tube #3 contained 48 μL fish gelatin/TBS-PBS, […] of peptide stock solution, plus 22 μL of 40 times diluted ACA-6501 serum. The control tube #4 received 396 μL fish gelatin/TBS-PBS and 44 μL of 40 times diluted ACA-6501 serum (no peptide). Each of the tubes incubated for approximately 1 hour at RT.
The CL/β2-GPI microtitration plate was washed 5 times with TBS and 100 μL aliquots in duplicate from Eppendorf tubes #1, 2, 3, and 4 containing the antibody-peptide (or no peptide mixtures) were added to the wells. A volume of 100 μL from tube #4 was added to the duplicate control wells containing no cardiolipin. The microtitration plate was incubated for 1 hour at RT with agitation at 40 rpm in an orbital shaker (American Scientific, Rotator V), washed 5 times with TBS and then 100 μL of 1:1000 goat anti-human IgG alkaline phosphatase conjugate (Zymed, Cat No. 62-8422) in 0.5% (w/v) BSA-TBS was added. Following incubation for 1 hour at RT, the microtitration plate was again washed 5 times with TBS and the colorimetric enzyme detection developed by adding 100 μL of PMPP solution (7.8 g phenolphthalein monophosphate plus 69.5 g of 2-amino-2-methyl-1-propanol in 100 mL water stock solution diluted 1:26 with water). After 21 minutes, the reaction was stopped by adding 50 μL of 0.2 M Na2HPO4 (Mallinckrodt) to each well. Absorbance at 550 nm was read in a microplate reader (Bio-Tek Instruments, Model EL 311). The amount of peptide that inhibited ACA-6501 binding by 50%, the IC50, was calculated from the graph at the intersection of half-maximal absorbance with amount of peptide added.

SMILES | with ACA 6501 150 ug/mL [µg/mL]
CC(C)C[C@@H]1NC(=O)[C@@H](NC(=O)[C@@H]2CCCN2C(=O)CNC(=O)[C@H](C)N)CSSC[C@@H](C(=O)NCC(=O)O)NC(=O)[C@H](CC(C)C)NC(=O)[C@H](CCCCN)NC(=O)CNC(=O)[C@H](CC(C)C)NC(=O)[C@H](C(C)C)NC(=O)CNC1=O [A G P C L G V L G K L C G] (H-AGPCLGVLGKLCG-OH; disulfide 4-12) | 450
CC(C)C[C@@H]1NC(=O)[C@H](CCCCN)NC(=O)CNC(=O)[C@H](CC(C)C)NC(=O)[C@H](C(C)C)NC(=O)CNC(=O)[C@H](C)NC(=O)[C@@H](N)CSSC[C@@H](C(=O)O)NC1=O [C A G V L G K L C] (H-CAGVLGKLC-OH; disulfide 1-9) | 200
CC(C)C[C@@H]1NC(=O)[C@H](CCCCN)NC(=O)CNC(=O)[C@H](CC(C)C)NC(=O)[C@H](C(C)C)NC(=O)CNC(=O)CNC(=O)[C@@H](N)CSSC[C@@H](C(=O)O)NC1=O [C G G V L G K L C] (H-CGGVLGKLC-OH; disulfide 1-9) | 310
CC[C@H](C)[C@@H]1NC(=O)[C@@H](N)CSSC[C@@H](C(=O)O)NC(=O)[C@H](CC(C)C)NC(=O)[C@H](CCCCN)NC(=O)CNC(=O)[C@H](CC(C)C)NC(=O)[C@H](C(C)C)NC(=O)CNC1=O [C I G V L G K L C] (H-CIGVLGKLC-OH; disulfide 1-9) | 60
CC(C)C[C@@H]1NC(=O)[C@H](CCCCN)NC(=O)CNC(=O)[C@H](CC(C)C)NC(=O)[C@H](C(C)C)NC(=O)[C@H](C)NC(=O)[C@H](CC(C)C)NC(=O)[C@@H](N)CSSC[C@@H](C(=O)O)NC1=O [C L A V L G K L C] (H-CLAVLGKLC-OH; disulfide 1-9) | 170
CC(C)C[C@@H]1NC(=O)[C@H](C)NC(=O)CNC(=O)[C@H](CC(C)C)NC(=O)[C@@H](N)CSSC[C@@H](C(=O)O)NC(=O)[C@H](CC(C)C)NC(=O)[C@H](CCCCN)NC(=O)CNC1=O [C L G A L G K L C] (H-CLGALGKLC-OH; disulfide 1-9) | 260
CC(C)C[C@@H]1NC(=O)[C@H](CCCCN)NC(=O)CNC(=O)[C@H](CC(C)C)NC(=O)[C@@H]2CCCN2C(=O)CNC(=O)[C@H](CC(C)C)NC(=O)[C@@H](N)CSSC[C@@H](C(=O)O)NC1=O [C L G P L G K L C] (H-CLGPLGKLC-OH; disulfide 1-9) | 180
CC(C)C[C@@H]1NC(=O)[C@H](C(C)C)NC(=O)CNC(=O)[C@H](CC(C)C)NC(=O)[C@@H](N)CSSC[C@@H](C(=O)O)NC(=O)[C@H](C)NC(=O)[C@H](CCCCN)NC(=O)CNC1=O [C L G V L G K A C] (H-CLGVLGKAC-OH; disulfide 1-9) | 360
CC(C)C[C@@H]1NC(=O)[C@H](C(C)C)NC(=O)CNC(=O)[C@H](CC(C)C)NC(=O)[C@@H](N)CSSC[C@@H](C(=O)O)NC(=O)CNC(=O)[C@H](CCCCN)NC(=O)CNC1=O [C L G V L G K G C] (H-CLGVLGKGC-OH; disulfide 1-9) | 500
CC(C)C[C@@H]1NC(=O)[C@H](CCCCN)NC(=O)CNC(=O)[C@H](CC(C)C)NC(=O)[C@H](C(C)C)NC(=O)CNC(=O)[C@H](CC(C)C)NC(=O)[C@@H](N)CSSC[C@@H](C(=O)N2CCC[C@H]2C(=O)NCC(=O)O)NC1=O [C L G V L G K L C P G] (H-CLGVLGKLCPG-OH; disulfide 1-9) | 460
CC(C)C[C@@H]1NC(=O)[C@H](C(C)C)NC(=O)CNC(=O)[C@H](CC(C)C)NC(=O)[C@@H](N)CSSC[C@@H](C(=O)O)NC(=O)[C@@H]2CCCN2C(=O)[C@H](CCCCN)NC(=O)CNC1=O [C L G V L G K P C] (H-CLGVLGKPC-OH; disulfide 1-9) | 550
CC(C)C[C@@H]1NC(=O)[C@H](C(C)C)NC(=O)CNC(=O)[C@H](CC(C)C)NC(=O)[C@@H](N)CSSC[C@@H](C(=O)O)NC(=O)C(C)(C)NC(=O)[C@H](CCCCN)NC(=O)CNC1=O [C L G V L G K aiB C] (H-CLGVLGK[Aib]C-OH; disulfide 1-9) | >470
CC(C)C[C@@H]1NC(=O)[C@H](C(C)C)NC(=O)CNC(=O)[C@H](CC(C)C)NC(=O)[C@@H](N)CSSC[C@@H](C(=O)O)NC(=O)[C@@H](CC(C)C)NC(=O)[C@H](CCCCN)NC(=O)CNC1=O [C L G V L G K dL C] (H-CLGVLGK[dL]C-OH; disulfide 1-9) | 140
CC(C)C[C@@H]1NC(=O)[C@H](C(C)C)NC(=O)CNC(=O)[C@H](CC(C)C)NC(=O)[C@@H](N)CSSC[C@@H](C(=O)O)NC(=O)[C@H](CC(C)C)N(C)C(=O)[C@H](CCCCN)NC(=O)CNC1=O [C L G V L G K nL C] (H-CLGVLGK[NMeL]C-OH; disulfide 1-9) | 240
CC(C)C[C@@H]1NC(=O)[C@H](C(C)C)NC(=O)CNC(=O)[C@H](CC(C)C)NC(=O)[C@@H](N)CSSC[C@@H](C(=O)O)NC(=O)[C@H](c2ccccc2)NC(=O)[C@H](CCCCN)NC(=O)CNC1=O [C L G V L G K pG C] (H-CLGVLGK[Phg]C-OH; disulfide 1-9) | 80
CC(C)C[C@@H]1NC(=O)[C@H](CCCN)NC(=O)CNC(=O)[C@H](CC(C)C)NC(=O)[C@H](C(C)C)NC(=O)CNC(=O)[C@H](CC(C)C)NC(=O)[C@@H](N)CSSC[C@@H](C(=O)O)NC1=O [C L G V L G Or L C] (H-CLGVLG[Orn]LC-OH; disulfide 1-9) | 40
CC(C)C[C@@H]1NC(=O)[C@H](C(C)C)NC(=O)CNC(=O)[C@H](CC(C)C)NC(=O)[C@@H](N)CSSC[C@@H](C(=O)O)NC(=O)[C@H](CC(C)C)NC(=O)[C@@H]2CCCN2C(=O)CNC1=O [C L G V L G P L C] (H-CLGVLGPLC-OH; disulfide 1-9) | 160
CC(C)C[C@@H]1NC(=O)[C@H](CCCNC(=N)N)NC(=O)CNC(=O)[C@H](CC(C)C)NC(=O)[C@H](C(C)C)NC(=O)CNC(=O)[C@H](CC(C)C)NC(=O)[C@@H](N)CSSC[C@@H](C(=O)O)NC1=O [C L G V L G R L C] (H-CLGVLGRLC-OH; disulfide 1-9) | 160
CC(C)C[C@@H]1NC(=O)[C@H](C(C)C)NC(=O)CNC(=O)[C@H](CC(C)C)NC(=O)[C@@H](N)CSSC[C@@H](C(=O)O)NC(=O)[C@H](CC(C)C)NC(=O)C(C)(C)NC(=O)CNC1=O [C L G V L G aiB L C] (H-CLGVLG[Aib]LC-OH; disulfide 1-9) | 460
CC(C)C[C@@H]1NC(=O)[C@H](C(C)C)NC(=O)CNC(=O)[C@H](CC(C)C)NC(=O)[C@@H](N)CSSC[C@@H](C(=O)O)NC(=O)[C@H](CC(C)C)NC(=O)[C@@H](CCCCN)NC(=O)CNC1=O [C L G V L G dK L C] (H-CLGVLG[dK]LC-OH; disulfide 1-9) | 170
CC(C)C[C@@H]1NC(=O)[C@H](C(C)C)NC(=O)CNC(=O)[C@H](CC(C)C)NC(=O)[C@@H](N)CSSC[C@@H](C(=O)O)NC(=O)[C@@H](CC(C)C)NC(=O)[C@@H](CCCCN)NC(=O)CNC1=O [C L G V L G dK dL C] (H-CLGVLG[dK][dL]C-OH; disulfide 1-9) | 150
CC(C)C[C@@H]1NC(=O)[C@H](C(C)C)NC(=O)CNC(=O)[C@H](CC(C)C)NC(=O)[C@@H](N)CSSC[C@@H](C(=O)O)NC(=O)[C@@H](CC(C)C)NC(=O)[C@@H](CC(C)C)NC(=O)CNC1=O [C L G V L G dL dL C] (H-CLGVLG[dL][dL]C-OH; disulfide 1-9) | 140
